# Measurements reported in patent publication US20230389548A1, “MIXTURES OF PYRIMIDINES AS HERBICIDAL COMPOSITIONS” (SYNGENTA CROP PROTECTION AG, priority 2020, published 2023).
# How the values were obtained:
# Assay in all cases: Post-emergence glasshouse spray test, visual percentage phytotoxicity after 13 days
# Type in all cases: in vivo
# [1] = system: Abutilon threophrasti (ABUTH); conditions: B1
# Method: (§1) Seeds of Setaria faberi (SETFA), Echinochloa crus-galli (ECHCG), Digitaria sanguinalis (DIGSA), Lolium perenne (LOLPE), Alopecurus myosuroides (ALOMY), Chenopodium album (CHEAL), Ipomoea hederacea (IPOHE), Stellaria media (STEME), Abutilon threophrasti (ABUTH), Amaranthus retroflexus (AMARE) were sown in standard sterilised soil in pots. After cultivation for 8 days under controlled conditions in a glasshouse (at 24/19° C., day/night; 16 hours light; no humidity control), the plants were sprayed at 500 l/Ha with an aqueous spray solution derived from the formulation of the technical active ingredients in a small amount of acetone and a solvent and emulsifier mixture referred to as IF50 (11.12% Emulsogen EL360™+44.44% N-methylpyrrolidone+44.44% Dowanol DPM glycol ether), to create a 50 g/l solution which was then diluted using 0.2% Genapol XO80 (CAS Number: 9043-30-5) as diluent to give the desired final dose of test compound.
# (§2) Where active ingredients were applied as mixtures, aqueous spray solutions were prepared as above, containing both active ingredients.
# (§3) The test plants were then grown under controlled conditions in a glasshouse (at 24/18° C., day/night; 15 hours light; 50% humidity) and watered twice daily. After 13 days, the test was evaluated visually for percentage phytotoxicity to the plants (where 100=total damage to plant; 0=no damage to plant; and NC=not captured) when compared to control untreated plants. Two to four replicates were applied for each treatment in a randomised block test design.
# (§4) 22., E=X+Y−(X*Y/100), where
# (§5) X=average percent phytotoxicity of herbicide A when applied at a certain rate Y=average percent phytotoxicity using herbicide B when applied at a certain rate E=the expected effect of the mixture of herbicides A and B as calculated from the Colby formula.
# [2] = system: Alopecurus myosuroides (ALOMY); conditions: B1
# Method: as §1, §2, §3, §4, §5
# [3] = system: Amaranthus retroflexus (AMARE); conditions: B1
# Method: as §1, §2, §3, §4, §5
# [4] = system: Chenopodium album (CHEAL); conditions: B1
# Method: as §1, §2, §3, §4, §5
# [5] = system: Digitaria sanguinalis (DIGSA); conditions: for DIGSA percentage phytotoxicity: B1
# Method: as §1, §2, §3, §4, §5
# [6] = system: Ipomoea hederacea (IPOHE); conditions: for IPOHE percentage phytotoxicity: B1
# Method: as §1, §2, §3, §4, §5
# Lolium perenne (LOLPE) = conditions: for LOLPE percentage phytotoxicity: B1
# Method: as §1, §2, §3, §4, §5
# Setaria faberi (SETFA) = conditions: for SETFA percentage phytotoxicity: B1; for Observed phytotoxicity SETFA: B2.6.1
# Method: as §1, §2, §3, §4, §5
# Stellaria media (STEME) = conditions: for STEME percentage phytotoxicity: B1
# Method: as §1, §2, §3, §4, §5
smiles,measurement,setting,value
Nc1c(F)c(-c2ccc3cc[nH]c3c2F)nc(C(=O)O)c1Cl [B-VI],ABUTH percentage phytotoxicity,[1]; 0.625 g/ha post-emergence,38%
same,ABUTH percentage phytotoxicity,[1]; 1.25 g/ha post-emergence,55%
same,ABUTH percentage phytotoxicity,[1]; 2.5 g/ha post-emergence,73%
same,ABUTH percentage phytotoxicity,[1]; 5 g/ha post-emergence,78%
same,ABUTH percentage phytotoxicity,[1]; 10 g/ha post-emergence,78%
same,ALOMY percentage phytotoxicity,[2]; 0.625 g/ha post-emergence,0%
same,ALOMY percentage phytotoxicity,[2]; 1.25 g/ha post-emergence,0%
same,ALOMY percentage phytotoxicity,[2]; 2.5 g/ha post-emergence,0%
same,ALOMY percentage phytotoxicity,[2]; 5 g/ha post-emergence,33%
same,ALOMY percentage phytotoxicity,[2]; 10 g/ha post-emergence,30%
same,AMARE percentage phytotoxicity,[3]; 0.625 g/ha post-emergence,58%
same,AMARE percentage phytotoxicity,[3]; 1.25 g/ha post-emergence,65%
same,AMARE percentage phytotoxicity,[3]; 2.5 g/ha post-emergence,73%
same,AMARE percentage phytotoxicity,[3]; 5 g/ha post-emergence,95%
same,AMARE percentage phytotoxicity,[3]; 10 g/ha post-emergence,90%
same,CHEAL percentage phytotoxicity,[4]; 0.625 g/ha post-emergence,58%
same,CHEAL percentage phytotoxicity,[4]; 1.25 g/ha post-emergence,73%
same,CHEAL percentage phytotoxicity,[4]; 2.5 g/ha post-emergence,75%
same,CHEAL percentage phytotoxicity,[4]; 5 g/ha post-emergence,94%
same,CHEAL percentage phytotoxicity,[4]; 10 g/ha post-emergence,84%
same,DIGSA percentage phytotoxicity,[5]; 0.625 g/ha post-emergence,0%
same,DIGSA percentage phytotoxicity,[5]; 1.25 g/ha post-emergence,0%
same,DIGSA percentage phytotoxicity,[5]; 2.5 g/ha post-emergence,0%
same,DIGSA percentage phytotoxicity,[5]; 5 g/ha post-emergence,8%
same,DIGSA percentage phytotoxicity,[5]; 10 g/ha post-emergence,43%
same,Observed phytotoxicity DIGSA,"[5]; B2.6.2, 0.625 g/ha post-emergence",0%
same,Observed phytotoxicity DIGSA,"[5]; B2.6.2, 1.25 g/ha post-emergence",0%
same,Observed phytotoxicity DIGSA,"[5]; B2.6.2, 5 g/ha post-emergence",8%
same,IPOHE percentage phytotoxicity,[6]; 0.625 g/ha post-emergence,13%
same,IPOHE percentage phytotoxicity,[6]; 1.25 g/ha post-emergence,35%
same,IPOHE percentage phytotoxicity,[6]; 2.5 g/ha post-emergence,38%
same,IPOHE percentage phytotoxicity,[6]; 5 g/ha post-emergence,48%
same,IPOHE percentage phytotoxicity,[6]; 10 g/ha post-emergence,50%
same,Observed phytotoxicity IPOHE,"[6]; B2.6.4, 2.5 g/ha post-emergence",38%
same,LOLPE percentage phytotoxicity,Lolium perenne (LOLPE); 0.625 g/ha post-emergence,0%
same,LOLPE percentage phytotoxicity,Lolium perenne (LOLPE); 1.25 g/ha post-emergence,0%
same,LOLPE percentage phytotoxicity,Lolium perenne (LOLPE); 2.5 g/ha post-emergence,0%
same,LOLPE percentage phytotoxicity,Lolium perenne (LOLPE); 5 g/ha post-emergence,8%
same,LOLPE percentage phytotoxicity,Lolium perenne (LOLPE); 10 g/ha post-emergence,8%
same,Observed phytotoxicity LOLPE,"Lolium perenne (LOLPE); B2.6.3, 5 g/ha post-emergence",8%
same,SETFA percentage phytotoxicity,Setaria faberi (SETFA); 0.625 g/ha post-emergence,0%
same,SETFA percentage phytotoxicity,Setaria faberi (SETFA); 1.25 g/ha post-emergence,0%
same,SETFA percentage phytotoxicity,Setaria faberi (SETFA); 2.5 g/ha post-emergence,0%
same,SETFA percentage phytotoxicity,Setaria faberi (SETFA); 5 g/ha post-emergence,48%
same,SETFA percentage phytotoxicity,Setaria faberi (SETFA); 10 g/ha post-emergence,70%
same,Observed phytotoxicity SETFA,Setaria faberi (SETFA); 0.625 g/ha post-emergence,0%
same,Observed phytotoxicity SETFA,Setaria faberi (SETFA); 1.25 g/ha post-emergence,0%
same,STEME percentage phytotoxicity,Stellaria media (STEME); 0.625 g/ha post-emergence,78%
same,STEME percentage phytotoxicity,Stellaria media (STEME); 1.25 g/ha post-emergence,50%
same,STEME percentage phytotoxicity,Stellaria media (STEME); 2.5 g/ha post-emergence,65%
same,STEME percentage phytotoxicity,Stellaria media (STEME); 5 g/ha post-emergence,98%
same,STEME percentage phytotoxicity,Stellaria media (STEME); 10 g/ha post-emergence,90%
same,Observed phytotoxicity STEME,"Stellaria media (STEME); B2.6.5, 1.25 g/ha post-emergence",50%
COc1c(Cl)ccc(-c2nc(C(=O)OCc3ccccc3)c(Cl)c(N)c2F)c1F [B-I],ABUTH percentage phytotoxicity,[1]; 0.625 g/ha post-emergence,75%
same,ABUTH percentage phytotoxicity,[1]; 1.25 g/ha post-emergence,83%
same,ABUTH percentage phytotoxicity,[1]; 2.5 g/ha post-emergence,80%
same,ABUTH percentage phytotoxicity,[1]; 5 g/ha post-emergence,80%
same,ABUTH percentage phytotoxicity,[1]; 10 g/ha post-emergence,85%
same,ALOMY percentage phytotoxicity,[2]; 0.625 g/ha post-emergence,0%
same,ALOMY percentage phytotoxicity,[2]; 1.25 g/ha post-emergence,0%
same,ALOMY percentage phytotoxicity,[2]; 2.5 g/ha post-emergence,0%
same,ALOMY percentage phytotoxicity,[2]; 5 g/ha post-emergence,0%
same,ALOMY percentage phytotoxicity,[2]; 10 g/ha post-emergence,3%
same,AMARE percentage phytotoxicity,[3]; 0.625 g/ha post-emergence,53%
same,AMARE percentage phytotoxicity,[3]; 1.25 g/ha post-emergence,58%
same,AMARE percentage phytotoxicity,[3]; 2.5 g/ha post-emergence,65%
same,AMARE percentage phytotoxicity,[3]; 5 g/ha post-emergence,58%
same,AMARE percentage phytotoxicity,[3]; 10 g/ha post-emergence,70%
same,CHEAL percentage phytotoxicity,[4]; 0.625 g/ha post-emergence,63%
same,CHEAL percentage phytotoxicity,[4]; 1.25 g/ha post-emergence,63%
same,CHEAL percentage phytotoxicity,[4]; 2.5 g/ha post-emergence,60%
same,CHEAL percentage phytotoxicity,[4]; 5 g/ha post-emergence,70%
same,CHEAL percentage phytotoxicity,[4]; 10 g/ha post-emergence,75%
same,DIGSA percentage phytotoxicity,[5]; 0.625 g/ha post-emergence,0%
same,DIGSA percentage phytotoxicity,[5]; 1.25 g/ha post-emergence,3%
same,DIGSA percentage phytotoxicity,[5]; 2.5 g/ha post-emergence,5%
same,DIGSA percentage phytotoxicity,[5]; 5 g/ha post-emergence,0%
same,DIGSA percentage phytotoxicity,[5]; 10 g/ha post-emergence,10%
same,Observed phytotoxicity DIGSA,"[5]; B2.5.1, 5 g/ha post-emergence",0%
same,IPOHE percentage phytotoxicity,[6]; 0.625 g/ha post-emergence,13%
same,IPOHE percentage phytotoxicity,[6]; 1.25 g/ha post-emergence,33%
same,IPOHE percentage phytotoxicity,[6]; 2.5 g/ha post-emergence,58%
same,IPOHE percentage phytotoxicity,[6]; 5 g/ha post-emergence,55%
same,IPOHE percentage phytotoxicity,[6]; 10 g/ha post-emergence,53%
same,LOLPE percentage phytotoxicity,Lolium perenne (LOLPE); 0.625 g/ha post-emergence,0%
same,LOLPE percentage phytotoxicity,Lolium perenne (LOLPE); 1.25 g/ha post-emergence,0%
same,LOLPE percentage phytotoxicity,Lolium perenne (LOLPE); 2.5 g/ha post-emergence,0%
same,LOLPE percentage phytotoxicity,Lolium perenne (LOLPE); 5 g/ha post-emergence,0%
same,LOLPE percentage phytotoxicity,Lolium perenne (LOLPE); 10 g/ha post-emergence,5%
same,Observed phytotoxicity LOLPE,"Lolium perenne (LOLPE); B2.5.2, 5 g/ha post-emergence",0%
same,SETFA percentage phytotoxicity,Setaria faberi (SETFA); 0.625 g/ha post-emergence,0%
same,SETFA percentage phytotoxicity,Setaria faberi (SETFA); 1.25 g/ha post-emergence,0%
same,SETFA percentage phytotoxicity,Setaria faberi (SETFA); 2.5 g/ha post-emergence,5%
same,SETFA percentage phytotoxicity,Setaria faberi (SETFA); 5 g/ha post-emergence,3%
same,SETFA percentage phytotoxicity,Setaria faberi (SETFA); 10 g/ha post-emergence,20%
same,STEME percentage phytotoxicity,Stellaria media (STEME); 0.625 g/ha post-emergence,50%
same,STEME percentage phytotoxicity,Stellaria media (STEME); 1.25 g/ha post-emergence,58%
same,STEME percentage phytotoxicity,Stellaria media (STEME); 2.5 g/ha post-emergence,75%
same,STEME percentage phytotoxicity,Stellaria media (STEME); 5 g/ha post-emergence,70%
same,STEME percentage phytotoxicity,Stellaria media (STEME); 10 g/ha post-emergence,85%
